Measurements taken from patent US20110207807A1, “NEW USE FOR HOMOISOFLAVONE OR A SALT THEREOF” (Catholic University Industry Academy Cooperation Foundation, priority 2008, published 2011).

Legend:
hairless mouse (SKH-1) = experiment: Ear edema induced by phorbol 12-myristate 13-acetate in animal model; assay type: in vivo
Protocol: In order to confirm the in vitro test result on the human keratinocytes HaCaT cells in an animal model, experiment was performed as follows using hairless mouse (SKH-1). Test groups are as follows: non-treated group—treated not with phorbol 12-myristate 13-acetate but only with acetone (TPA); test group A—treated with 1 μg/10 μL homoisoflavanone or 50 μg/10 μL dexamethasone; control group (TPA)-treated with 100 μM phorbol 12-myristate 13-acetate; test group B—treated with 1 μg/10 μL homoisoflavanone or 50 μg/10 μL dexamethasone as well as 100 μM phorbol 12-myristate 13-acetate.
One hour before treating with phorbol 12-myristate 13-acetate, 1 μg/10 μL homoisoflavanone or 50 μg/10 μL dexamethasone was applied on the front and rear parts of the ear, 5 μL each. Then, 6 hour after the application of phorbol 12-myristate 13-acetate, ear thickness and weight were measured.
In order to investigate overall change in the skin tissue, hematoxylin-eosin staining was carried out.

rat mast cells = experiment: Antigen (DNP-IgE/DNP-HSA)-induced degranulation of rat mast cells (hexosaminidase release); assay type: cell-based; details: at 2 μg/mL, DNP-IgE / 10 ng/mL DNP-HSA, concentration-dependent (FIG. 8c)
Protocol: Further, the effect of homoisoflavanone on degranulation of rat mast cells induced by antigen was investigated. 5×10^4 rat mast cells were inoculated on a 6-well plate and cultured in MEM containing 15% FBS for 24 hours. Then, after reacting with 1 μg/mL DNP-IgE for 16 hours and then removing DNP-IgE by washing with PBS, the cells were cultured in 15% MEM for 6 hours. After pretreating with homoisoflavanone in Tyrode's solution for 30 minutes, the cells were treated with 10 ng/mL DNP-human serum albumin (HSA) to induce degranulation by transmitting the signals induced by the antigen. 30 minutes later, the supernatant was collected and the pellets were lysed with 0.5% triton X-100 (500 μL). The supernatant and the lysed pellets (70 μL) were incubated at 37° C. for 90 minutes in 0.1 M sodium citrate solution (pH 4.5) containing 8 mM p-nitrophenyl-N-acetyl-β-d-glucosaminide (70 μL). Then, after adding 0.2 M glycine (pH 10.7, 70 μL) to stop the reaction, absorbance was measured at 405 nm. Total enzymatic activity was calculated by the following equation.
Release amount=(Absorbance of supernatant)÷(Absorbance of supernatant+Absorbance of pellets)×100%

HMC-1 cells = experiment: Degranulation induced by PMA and A23187 in HMC-1 (transmission electron microscopy); assay type: cell-based, human; details: HMC-1, 2 μg/mL, 50 nM PMA + 1 μM A23187, 6 hours (FIG. 8a)
Protocol: In order to investigate the effect of homoisoflavanone on COX-2 expression induced by phorbol 12-myristate 13-acetate and A23187 in HMC-1, 1×10^5 HMC-1 cells were inoculated on a 6-well plate and cultured in IMDM containing 10% FBS for 48 hours. Then, after treating with homoisoflavanone at 2 μg/mL for 1 hour, the cells were treated with 50 nM phorbol 12-myristate 13-acetate and 1 μM A23187 to induce COX-2 expression, and then further cultured for 6 hours. Then, the cells were fixed with 2.5% glutaraldehyde and frozen with liquid nitrogen. The cells were detached from the plate by applying heat, sliced into […], attached on grids, and observed with a transmission electron microscope (TEM).

BALE/c mice = experiment: Ear edema induced by UV radiation in animal model; assay type: in vivo, mouse; details: UV 7.5 kJ/m^2, 72 hours after UV (FIG. 10a)
Protocol: BALE/c mice were subdivided into a non-treated group (treated with acetone only without UV radiation), a control group (irradiated with UV at 7.5 kJ/m^2) and a test group (treated with 0.6 or 1 μg/10 μL homoisoflavanone and irradiated with UV at 7.5 kJ/m^2). Then, the effect on ear edema induced by UV radiation was investigated.
One hour before irradiating UV at 7.5 kJ/m^2, 1 μg/10 μL homoisoflavanone was applied on the front and rear parts of the ear, 5 μL each. Then, 72 hours after UV radiation, ear thickness was measured.

[1] = topical 1 μg/10 μL homoisoflavanone or 50 μg/10 μL dexamethasone 1 h before 100 μM TPA, 6 hour after TPA, vs TPA control (FIG. 4a, 4b)

For `COc1ccc(CC2COc3cc(O)cc(O)c3C2=O)cc1O` (stereo not shown) [homoisoflavanone], the “hyperplasia in the epidermis (hematoxylin-eosin staining)” value (hairless mouse (SKH-1); 1 μg/10 μL homoisoflavanone or 50 μg/10 μL dexamethasone plus TPA (FIG. 4c)) was “significantly reduced”, the ear thickness (hairless mouse (SKH-1); [1]) was “decrease” and the ear weight (hairless mouse (SKH-1); [1]) was “decrease”. For the same compound, the “inhibition of antigen-induced degranulation (hexosaminidase release)” value (rat mast cells) was 50%, the “release of intracellular substances (degranulation, TEM)” value (HMC-1 cells) was “inhibited” and the “decrease in ear thickness” value (BALE/c mice; 0.6 μg/ear topical) was 44%. The “decrease in ear thickness” value (BALE/c mice; 1 μg/ear topical) was 52%.
